In paper PMC3350427, “In vitro antiproliferative/cytotoxic activity on cancer cell lines of a cardanol and a cardol enriched from Thai Apis mellifera propolis” (BMC Complementary and Alternative Medicine, 2012):
≈ marks a conversion by molar mass, not a printed value. Where “and” joins values, the source holds several entries; their conditions need not be identical. Identical values can stand only once. Like-named read-outs stand apart in the source and are kept apart here.

What was measured:
[1] = system: human colorectal cancer cell line (CRC); set-up: method as in PMID 15996024; details: 72 h treatment, cited from earlier work
[2] = system: BT474 cells (duet carcinoma); experiment: MTT antiproliferative/cytotoxic assay, BT474; format: cell-based, human; details: for IC50: Homo sapiens, BT-474, BT474, 72 h exposure, MTT, read-out: IC50, in vitro antiproliferative/cytotoxic activity
From the text: (§1) The five selected cancer cell lines used in this research were derived from human duet carcinoma (BT474, ATCC No. HTB 20), undifferentiated lung (Chaco I, National Cancer Institute), liver hepatoblastoma (Hep-G2, ATCC No. HB8065), gastric carcinoma (KATO-III, ATCC No. HTB 103) and human colon adenocarcinoma (SW620, ATCC No. CCL 227) cancers. In addition, the non-transformed human foreskin fibroblast cell line (Hs27, ATCC No. CRL 1634) was used as a comparative control. All cell lines were obtained from the Institute of Biotechnology and Genetic Engineering, Chulalongkorn University. The five cancer cell lines were cultured in RPMI 1640 medium containing 5% (v/v) fetal calf serum (FCS), while the Hs27 cell line was cultured in Basal Iscove medium containing 5% (v/v) FCS, at 37°C with 5% (v/v) CO2 [28].
(§2) The MTT assay was performed as reported by Santos et al. and Hernandez et al.. […] The supernatant was then removed, the cells permeabilized and the formazan crystals dissolved by aspiration in 150 μl of DMSO and 25 μl of 0.1 M glycine prior to measuring the absorbance at 540 nm by a microplate reader. […] By assuming an equal mitochondrial metabolic activity per living cell, the absorbance is then related to the relative number of viable cells and so is reduced, relative to the control, by any antiproliferation and/or cytotoxic activity of the test compound.
The absorbance at 540 nm of the test compound treated cancer cells and the solvent only control was used to calculate the relative number of viable cells, setting that for the control as 100%. The relative number of viable cells, as a % of the control, was then calculated as follows: […]
(§3) where (Abs of sample) and (Abs of control) are defined as the absorbance at 540 nm of the treated cells and the control cells, respectively.
The IC50 values were graphically obtained by plotting the absorbance obtained against the corresponding different concentrations of the test compound used, and are reported as the mean ± 1 standard error (SE). Data were statistically analyzed using the Kruskal-Wallis One Way Analysis of Variance. […]

SW620 cells [3] = experiment: Cell morphology in culture, SW620; format: cell-based, human; details: at IC50 ([…] / 3.0 μg/ml)
Description: (§4) The morphology of the SW620 or Hs27 cells treated with each test compound was compared to those treated with only the DMSO solvent as the control. Cells were released by standard trypsin and aspiration, centrifugally washed at 2,000 × g at 15-25°C for 5 min and finally the cell pellet was resuspended in 200 μl of PBS. To this 20 μl of proteinase K (> 600 mAU/ml) was added and total DNA was extracted using a QIAMP mini kit (Qiagen, cat. no. 51304), as per the manufacturer's instructions. […] After electrophoresis, the gel was stained with 10 μg/ml of ethidium bromide (EtBr) for 10 min, destained in distilled water for 20 min and the DNA visualized by ultraviolet transillumination.

SW620 cells [4] = experiment: DNA fragmentation (agarose-TBE gel), SW620; format: cell-based, human; details: SW620, 72 h at IC50, agarose-TBE gel
Description: as §4

[5] = system: Hep-G2 cells (liver hepatoblastoma); experiment: MTT antiproliferative/cytotoxic assay, Hep-G2; format: cell-based; details: Homo sapiens, HepG2, Hep-G2, 72 h exposure, read-out: IC50, in vitro antiproliferative/cytotoxic activity
From the text: as §1, with “The five cancer cell lines were cultured in RPMI 1640 medium containing 5% (v/v) fetal calf serum (FCS), while the Hs27 cell line was cultured in Basal Iscove medium containing 5% (v/v) FCS, at 37°C with 5% (v/v) CO2 [28].” left out
as §2
(§5) The absorbance at 540 nm of the test compound treated cancer cells and the solvent only control was used to calculate the relative number of viable cells, setting that for the control as 100%. […]

[6] = system: Chaco cells (undifferentiated lung cancer); experiment: MTT antiproliferative/cytotoxic assay, Chaco; format: cell-based; details: Homo sapiens, 72 h exposure, read-out: IC50, in vitro antiproliferative/cytotoxic activity
From the text: as §1, with “The five cancer cell lines were cultured in RPMI 1640 medium containing 5% (v/v) fetal calf serum (FCS), while the Hs27 cell line was cultured in Basal Iscove medium containing 5% (v/v) FCS, at 37°C with 5% (v/v) CO2 [28].” left out
as §2, §5

[7] = system: five human cancer cell lines (BT474, Chaco, Hep-G2, KATO-III, SW620); experiment: MTT assay, summary over the five cancer cell lines; format: cell-based; details: 72 h exposure, read-out: IC50 values, range across the five cancer cell lines
From the text: as §1, with “The five cancer cell lines were cultured in RPMI 1640 medium containing 5% (v/v) fetal calf serum (FCS), while the Hs27 cell line was cultured in Basal Iscove medium containing 5% (v/v) FCS, at 37°C with 5% (v/v) CO2 [28].” left out
as §2, §5

[8] = system: five cancer cell lines and the control Hs27 cell line; experiment: MTT assay, summary over the five cancer cell lines and Hs27; format: cell-based; details: Homo sapiens, 72 h exposure, read-out: IC50 values, range across the five cancer cell lines and the control Hs27 cell line
From the text: as §1, with “The five cancer cell lines were cultured in RPMI 1640 medium containing 5% (v/v) fetal calf serum (FCS), while the Hs27 cell line was cultured in Basal Iscove medium containing 5% (v/v) FCS, at 37°C with 5% (v/v) CO2 [28].” left out
as §2, §5

[9] = system: SW620 cells (colon adenocarcinoma); experiment: MTT antiproliferative/cytotoxic assay, SW620; format: cell-based, human; details: for IC50 / IC50, in vitro antiproliferative/cytotoxic activity: SW620, 72 h exposure, MTT; for IC50: read-out: IC50, in vitro antiproliferative/cytotoxic activity
From the text: as §1
The MTT assay was performed as reported by Santos et al. and Hernandez et al.. For each of the five cancer cell lines, 5 × 10^3 cells in 200 μl of RPMI 1640 medium containing 5% (v/v) FCS were transferred per well of a 96 well tissue culture plate, and incubated at 37°C in 5% (v/v) CO2 for 24 h prior to the addition of 2 μl/well of the test extract in dimethylsulfoxide (DMSO) at various final concentrations. The addition of 2 μl/well of DMSO alone was used as the control. Cells were then incubated as above for 72 h before 10 μl of 5 mg/ml MTT was added and incubated for another 4 h. The supernatant was then removed, the cells permeabilized and the formazan crystals dissolved by aspiration in 150 μl of DMSO and 25 μl of 0.1 M glycine prior to measuring the absorbance at 540 nm by a microplate reader. Three replications of each trial were performed. By assuming an equal mitochondrial metabolic activity per living cell, the absorbance is then related to the relative number of viable cells and so is reduced, relative to the control, by any antiproliferation and/or cytotoxic activity of the test compound.
The absorbance at 540 nm of the test compound treated cancer cells and the solvent only control was used to calculate the relative number of viable cells, setting that for the control as 100%. The relative number of viable cells, as a % of the control, was then calculated as follows:
Therelative(% )numberofviablecells = (Absofsample)×100/(Absofcontrol)
as §3
The IC50 values were graphically obtained by plotting the absorbance obtained against the corresponding different concentrations of the test compound used, and are reported as the mean ± 1 standard error (SE). Data were statistically analyzed using the Kruskal-Wallis One Way Analysis of Variance. Significance was accepted at the P < 0.05 level.

Hs27 cells [10] = experiment: Cell morphology in culture, Hs27; format: cell-based, human; details: Hs27, up to 96 h, same doses as for SW620
Description: as §4

[11] = system: KATO-III cells (gastric carcinoma); experiment: MTT antiproliferative/cytotoxic assay, KATO-III; format: cell-based; details: Homo sapiens, 72 h exposure, read-out: IC50, in vitro antiproliferative/cytotoxic activity
From the text: as §1, with “The five cancer cell lines were cultured in RPMI 1640 medium containing 5% (v/v) fetal calf serum (FCS), while the Hs27 cell line was cultured in Basal Iscove medium containing 5% (v/v) FCS, at 37°C with 5% (v/v) CO2 [28].” left out
as §2, §5

[12] = MTT antiproliferative/cytotoxic assay, non-transformed Hs27; format: cell-based; details: human, Hs27 non-transformed foreskin fibroblast cells, read-out: IC50, in vitro antiproliferative/cytotoxic activity
From the text: as §1, with “The five cancer cell lines were cultured in RPMI 1640 medium containing 5% (v/v) fetal calf serum (FCS), while the Hs27 cell line was cultured in Basal Iscove medium containing 5% (v/v) FCS, at 37°C with 5% (v/v) CO2 [28].” left out
as §2, §5

Hs27 cells [13] = experiment: DNA fragmentation (agarose-TBE gel), Hs27; format: cell-based, human; details: Hs27, 72 h
Description: as §4

B16-F10 melanoma cells = system: B16-F10 melanoma cells; set-up: method as in PMID 20623613; details: cited from earlier work
HeLa tumor cells = system: HeLa tumor cells; set-up: method as in PMID 19497755; details: cited from earlier work
[14] = read-out: IC50, antiproliferative activity
[15] = mean ± 1 SE, ND in Table 4 = no IC50 obtained, no significant activity in tested concentration range

For `O=C(/C=C/c1ccc(O)c(O)c1)OCCc1ccccc1` [CAPE, caffeic acid phenethyl ester], the IC50 [1, 14] is listed as 22.7 µM, the “IC50, antiproliferative activity” value [1] is listed as 6.47 µg/mL (≈ 22.8 µM) and the “fold higher IC50 of CAPE than compound 2 (cardol) on BT474” value ([2]; in terms of molarity, CAPE on MDA-231/MCF-7) is listed as ~1.5 fold.

For `CCCCCCCCCCCCCCCc1cc(O)cc(O)c1` [Compound 2], the cell morphology (SW620 cells [3]; SW620, 24 h) was “No significant change in the cell morphology”, the cell morphology (SW620 cells [3]; SW620, 48 h) was “vacuolation could be seen inside the cells” and the cell morphology (SW620 cells [3]; SW620, 72 h) was “apparent DNA condensation within the nucleus was visible”. The cell morphology (SW620 cells [3]; SW620, 96 h) was “significantly higher levels of cells with DNA condensation within their nucleus”, the “evidence of fragmentation of the DNA” value (SW620 cells [4]) was “neither as an apoptotic ladder nor a general degradation smear” and the IC50 [5, 15] was 5.97 ± 0.15 µg/mL. It also gave an IC50 [5] of 1.3 ± 0.33 µM, an IC50 [6, 15] of 5.78 ± 0.07 µg/mL and an IC50 [6] of 12.6 ± 0.15 µM. For the same compound, the IC50 [7] was 3.13 µg/mL to 6 µg/mL and 6.82 µM to 13.1 µM, the IC50 [8] was 3.13 µg/mL to 5.97 µg/mL and 6.82 µM to 13 µM and the IC50 ([9]; Homo sapiens, SW-620, 72 h, mean ± 1 SE, ND in Table 4 = no IC50 obtained, no significant activity in tested concentration range) was 3 µg/mL. For the same compound, the IC50 ([9]; Homo sapiens, SW-620, 72 h) was 6.54 µM, the “IC50, in vitro antiproliferative/cytotoxic activity” value [9, 15] was < 3.125 µg/mL and the “IC50, in vitro antiproliferative/cytotoxic activity” value ([9]; mean ± 1 SE, ND in Table 4 = no IC50 obtained, no significant activity in tested concentration range, listed as compound 2) was < 3.13 µg/mL. The IC50 ([9]; listed as compound 2) was < 6.8 µM, the IC50 [9] was < 6.81 µM and the “fold lower IC50 on SW620 than IC50 of CAPE on CRC” value ([9]; in terms of molarity) was “over 3.3 fold”. The cell morphology (Hs27 cells [10]) was “no morphological changes were observed”, the IC50 [11, 15] was 4.03 ± 0.13 µg/mL and the IC50 [11] was 8.78 ± 0.28 µM. For the same compound, the IC50 at 72 h ([12]; Hs27, 72 h exposure) was 1.3 ± 0.33 µM, the IC50 at 72 h ([12]; Hs27 non-transformed control, 72 h exposure, mean ± 1 SE) was 5.97 ± 0.15 µg/mL and the “evidence of fragmentation of the DNA” value (Hs27 cells [13]) was “neither as an apoptotic ladder nor a general degradation smear”. For the same compound, the IC50 [2, 15] was 4.41 ± 0.15 µg/mL and the IC50 [2] was 9.61 ± 0.33 µM.

In the case of `CCCCCCCCCCCCCCCc1cc(O)cc(O)c1` [cardol (C15:0)], the “IC50, cytotoxicity” value (B16-F10 melanoma cells) is given as 8.352 µg/mL (≈ 26.1 µM), the complete lethality concentration (B16-F10 melanoma cells) is given as 40 μM and 13.92 μg/ml and the IC50 (B16-F10 melanoma cells; read-out: IC50, cytotoxicity) is given as 24 µM.

In the case of `CC(C)=CC[C@H]1C[C@@]2(CC=C(C)C)C(=O)[C@](C(=O)c3ccccc3)(C(=O)C3=C2O[C@H](C(C)(C)O)C3)C1(C)C` [hyperibone A], the “IC50, antiproliferative activity” value (HeLa tumor cells) is given as 0.091 µg/mL (≈ 0.175 µM) and the IC50 (HeLa tumor cells; [14]) is given as 0.176 µM.
